Measurements taken from ChEMBL document CHEMBL1201862, “PubChem BioAssay data set” (2004).
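Step 1: Grow cells in 96-well plates. Step 2: Expose to compound for 48 hours at 5 concentrations. Step 3: Interpolate endpoints linearly; if unreached, use highest concentration. GI50 = concentration required for 50% inhibition of growth.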 Calls of active or inactive are those of the source. Rule as the data show it: active = GI50 up to about 1.1 µM and inactive = higher.

Columns and labels:
Experiment in all cases: DTP human tumour cell line panel, 48 h
[1] = test system: BT-549
[2] = test system: DMS-114
[3] = test system: HOP-18
[4] = test system: KM-20L2
[5] = test system: LXFL 529
[6] = test system: M19-MEL
[7] = test system: RXF 631
[8] = test system: SNB-78
[9] = test system: DLD-1

SMILES | GI50 [1] | GI50 [2] | GI50 [3] | GI50 [4] | GI50 [5] | GI50 [6] | GI50 [7] | GI50 [8] | GI50 [9]
COc1cc2nncc(SCc3ccc(Cl)c(Cl)c3)c2cc1OC | > 100 µM (inactive) | > 100 µM (inactive) | > 100 µM (inactive) | 6.85 µM (inactive) | 17.7 µM (inactive) | > 100 µM (inactive) | 72.1 µM (inactive) | 40.7 µM (inactive) | 
COC(=O)c1nc(N)nc(C(=O)OC)c1C(=O)c1ccccc1 |  | > 100 µM (inactive) | > 100 µM (inactive) | > 100 µM (inactive) | > 100 µM (inactive) | > 100 µM (inactive) | > 100 µM (inactive) |  | > 100 µM (inactive)
COc1cc([C@@H]2c3cc4c(cc3[C@@H](NC(=O)c3ccc(C(C)=O)cc3)C3COC(=O)[C@@H]32)OCO4)cc(OC)c1O (some centres not stated) |  | 0.659 µM (active) | > 100 µM (inactive) | 0.724 µM (active) | 5.56 µM (inactive) | 3.01 µM (inactive) | 1.24 µM (inactive) | 8.99 µM (inactive) | 1.4 µM (inactive)
COc1ccc(OC(C(=O)O)C(C)C)c2c1CCCC2=O (configuration not stated) |  | > 100 µM (inactive) | > 100 µM (inactive) | > 100 µM (inactive) | > 100 µM (inactive) | > 100 µM (inactive) | > 100 µM (inactive) | > 100 µM (inactive) | > 100 µM (inactive)
CC1=CC(C)(C)N=C2SC(c3ccc(N)cc3)=NN12 |  | 32.7 µM (inactive) | 1.47 µM (inactive) | 46.6 µM (inactive) | 31.6 µM (inactive) | 63.1 µM (inactive) | 50.7 µM (inactive) | > 100 µM (inactive) | 40.1 µM (inactive)
Cc1noc(/N=C2\C=C(Nc3onc(C)c3C)C(=O)c3ccccc32)c1C |  | 15.3 µM (inactive) | 85.9 µM (inactive) | > 100 µM (inactive) | 25.5 µM (inactive) | 3.98 µM (inactive) | > 100 µM (inactive) | > 100 µM (inactive) | 96.8 µM (inactive)
O=C(CCC(=O)C1CCC/C1=N/O)Nc1ccc(Cl)cc1 (configuration not stated) |  |  | > 100 µM (inactive) | > 100 µM (inactive) | > 100 µM (inactive) | > 100 µM (inactive) | > 100 µM (inactive) | > 100 µM (inactive) | > 100 µM (inactive)
CN1Cc2c(nc(-c3ccccc3)c[n+]2[O-])N(C)C1 |  | > 100 µM (inactive) | > 100 µM (inactive) | > 100 µM (inactive) | > 100 µM (inactive) | > 100 µM (inactive) | > 100 µM (inactive) | > 100 µM (inactive) | > 100 µM (inactive)
COc1ccc2c(c1)[n+]([O-])c(-c1c(Cl)cccc1Cl)c(N)[n+]2[O-] |  | 34.4 µM (inactive) |  | 42.2 µM (inactive) | 39.9 µM (inactive) | 40.3 µM (inactive) | 25.3 µM (inactive) | 69.3 µM (inactive) | 39.4 µM (inactive)
CC(C)=CCCC(C)[C@H]1CC(O)C2(C)C3=CCC4C(C)(C)[C@@H](O)CC[C@]4(C)C3=CC[C@]12C (some centres not stated) |  | 10 µM (inactive) | 13.7 µM (inactive) | 6.58 µM (inactive) | 1.95 µM (inactive) | 4.51 µM (inactive) | 4.34 µM (inactive) | 7.13 µM (inactive) | 3.87 µM (inactive)
